# Reference: patent publication US7781423B2, “Compounds to promote regeneration of bone marrow” (priority 2007, dated 2010)
# Experiments:
# [1] = tested on: NIH 3T3, A431, MCF-7, MEL-28, HT-29, A549, T47D, CaOV-3, ZR-75-1, HTB-157, MEL-24, Hep G2, CaCO-2, MB-231 cells; assay: MTT survival/proliferation experiments on the panel of normal and cancer cells; assay type: cell-based, human, mouse; conditions: serum-free (survival) or 2% serum (proliferation); 72 hours; lower and higher (50 μM) concentration
# Procedure: The NIH 3T3 (normal) mouse fibroblast, A431 human epidermoid adenocarcinoma, and MCF-7 human breast cancer cells were cultured in DMEM medium containing 10% FBS. The MEL-28 human melanoma cells were cultured in MEM medium containing 10% FBS. The HT-29 human colon adenocarcinoma cells were cultured in McCoy's 5a medium containing 10% FBS. The A549 human lung carcinoma cells were maintained in Ham's F12K medium containing 10% FBS. T47D cells were cultured in 12-well plates in RPMI 1640 medium supplemented with 0.2 IU bovine insulin and 10% FBS. CaOV-3 human ovarian cancer cells were cultured in DMEM containing 10% FBS. ZR-75-1 human estrogen receptor-positive breast cancer cells were maintained in RPMI 1640 medium supplemented with 10% FBS. HTB-157 human fetal fibroblasts, MEL-24 human malignant melanoma cells, Hep G2 human hepatoblastoma cells, and CaCO-2 human colon adenocarcinoma cells were maintained in Eagles's MEM containing 10% FBS. MB-231 human estrogen receptor-negative breast cancer cells were maintained in Leibovitz's L-15 medium supplemented with 10% FBS.
# In the actual experiments, cells were seeded into 96-well plates and cultivated up to either ˜70-90% confluency (survival experiments) or 20-25% confluency (proliferation experiments). Then the medium was changed for serum-free medium (survival experiment) or 2% serum-containing medium (proliferation experiment). […]
# healthy mice = assay: Toxicity in healthy mice; assay type: in vivo; conditions: 1,000-1,500 μmole doses
# [2] = tested on: human bone marrow-derived mesenchymal stem cells; assay: Proliferation of mesenchymal stem cells in the presence of 2% serum (viable cell number); assay type: cell-based; conditions: 10 μM or 50 μM
# Procedure: (§1) Bone marrow aspirates were taken from normal adult donors after an informed consent was signed. Bone marrow mesenchymal stem cells were prepared by a widely used technique as described earlier by others. Pittenger, M. F., Mackay, A. M., Beck, S. C., Jaiswal, R. K., Douglas, R., Mosca, J. D., Moorman, M. A., Simonetti, D. W., Craig, S. and Marshak, D. R., “Multilineage potential of adult human mesenchymal stem cells,” Science, 284, 143-147 (1999). […] When cells grew to about 80% confluence, they were suspended and harvested by incubating with a ready-made solution containing 0.25% trypsin and 1 mM EDTA (Sigma-Aldrich, St. Louis, Mo.) for 5 minutes at 37° C.; this cell suspension is designated as passage 1. […]
# (§2) The total numbers of nucleated and viable cells were determined with a hemocytometer, using Turck's solution and trypan blue stain, respectively. […]
# (§3) In the experiments reported in Table 7 and Table 8, human bone marrow-derived mesenchymal stem cells were split at 1:3 and then incubated for 24 hours in 10% fetal calf serum-containing medium to about 30-35% confluence. […] The data are expressed as mean values±std. dev. of 3 determinations.
# [3] = tested on: human bone marrow-derived mesenchymal stem cells; assay: Survival of mesenchymal stem cells in the absence of serum (viable cell number); assay type: cell-based; conditions: serum-free medium
# Procedure: as §1, §2, §3
compound,measurement,setting,value
"Cc1c(OCC(O)C[N+](C)(C)C)cc2c(=O)c3ccccc3sc2c1C.[Cl-] (centres unmarked) [CCcompound1, [3-(3,4-Dimethyl-9-oxo-9H-thioxanthen-2-yloxy)-2-hydroxypropyl]trimethyl-ammonium chloride]",enhancement of survival or proliferation,[1],Neither the lower nor the higher concentration of CCompound1 enhanced the survival or proliferation
same,tissue alterations at high doses,healthy mice,"mild parenchymal degeneration in the heart, focal hypostasis and chronic bronchopneumonia"
same,effect on the proliferation of stem cells,[2],no direct stimulatory effect
same,effect on cell numbers (survival),[3]; 10 μM,did not reach statistical significance
same,effect on cell numbers (survival),[3]; 50 μM,no effect
